Experiment: Solubility (solvent listed in compound tables)
Type: physicochemical
[1] = solvents listed for the compound

| SOLUBILITY [1] | SOLUBILITY (solvent named, Table 3) | Compound |
| --- | --- | --- |
| MeOH, DMSO |  | Cc1cc(NCCCCNc2ccnc3cc(Cl)ccc23)nc(NCCCCO)n1 [MT1-194] |
| MeOH, DMSO |  | Cc1cc(NCCCCNc2ccnc3cc(Cl)ccc23)nc(NCCCCCO)n1 [MT1-195] |
| MeOH, DMSO |  | Cc1cc(NCCCCNc2ccnc3cc(Cl)ccc23)nc(NCCCCCCO)n1 [MT1-196] |
|  | DMSO | Clc1ccc2c(NCCNc3nc(Nc4ccccc4)nc(Nc4ccccc4)n3)ccnc2c1 [SM 129] |
|  | DMSO | COc1cc(Nc2nc(NC(C)CNc3ccnc4cc(Cl)ccc34)nc(N3CCOCC3)n2)cc(OC)c1 (stereo not drawn) [SM 130] |
|  | DMSO | Clc1ccc2c(NCCNc3nc(Cl)nc(NCCNc4ccnc5cc(Cl)ccc45)n3)ccnc2c1 [SM 133] |
|  | DMSO | Clc1ccc2c(NCCNc3nc(Cl)nc(Nc4ccccc4)n3)ccnc2c1 [SM 136] |
|  | DMSO | CCN(CC)c1nc(Cl)nc(NCCNc2ccnc3cc(Cl)ccc23)n1 [SM 137] |
|  | DMSO | Clc1ccc2c(NCCNc3nc(N4CCOCC4)nc(N4CCOCC4)n3)ccnc2c1 [SM 142] |
|  | DMSO | CC(CNc1ccnc2cc(Cl)ccc12)Nc1nc(N2CCOCC2)nc(N2CCOCC2)n1 (stereo not drawn) [SM 143] |
|  | DMSO | Cc1ccccc1Nc1nc(NCCNc2ccnc3cc(Cl)ccc23)nc(Nc2ccccc2C)n1 [SM 144] |
|  | DMSO | Cc1ccccc1Nc1nc(Nc2ccccc2C)nc(NC(C)CNc2ccnc3cc(Cl)ccc23)n1 (stereo not drawn) [SM 146] |
|  | DMSO | COc1ccc(Nc2nc(NCCNc3ccnc4cc(Cl)ccc34)nc(N3CCOCC3)n2)cc1 [SM 332] |
|  | DMSO | Fc1ccc(Nc2nc(NCCNc3ccnc4cc(Cl)ccc34)nc(N3CCOCC3)n2)cc1 [SM 334] |
|  | DMSO | CCc1ccc(Nc2nc(NCCNc3ccnc4cc(Cl)ccc34)nc(N3CCOCC3)n2)cc1 [SM 335] |
|  | DMSO | Clc1ccc2c(NCCNc3nc(Nc4ccccc4)nc(N4CCOCC4)n3)ccnc2c1 [SM 336] |
|  | DMSO | COc1ccc(Nc2nc(NCCCNc3ccnc4cc(Cl)ccc34)nc(N3CCOCC3)n2)cc1 [SM 337] |
|  | DMSO | Fc1ccc(Nc2nc(NCCCNc3ccnc4cc(Cl)ccc34)nc(N3CCOCC3)n2)cc1 [SM 339] |
|  | DMSO | CCc1ccc(Nc2nc(NCCCNc3ccnc4cc(Cl)ccc34)nc(N3CCOCC3)n2)cc1 [SM 340] |
|  | DMSO | Clc1ccc2c(NCCCNc3nc(Nc4ccccc4)nc(N4CCOCC4)n3)ccnc2c1 [SM 341] |
|  | DMSO | OCCNc1nc(NCCCCNc2ccnc3cc(Cl)ccc23)nc(N2CCOCC2)n1 [SM 345] |

| SOLUBILITY [1] | SOLUBILITY (solvent named, Table 3) | Compound |
| --- | --- | --- |
|  | DMSO | OCCCNc1nc(NCCCCNc2ccnc3cc(Cl)ccc23)nc(N2CCOCC2)n1 [SM 349] |
|  | DMSO | OCCCNc1nc(NCCNc2ccnc3cc(Cl)ccc23)nc(N2CCOCC2)n1 [SM 350] |
|  | DMSO | OCCCNc1nc(NCCCNc2ccnc3cc(Cl)ccc23)nc(N2CCOCC2)n1 [SM 351] |
|  | DMSO | OCCNc1nc(NCCNc2ccnc3cc(Cl)ccc23)nc(N2CCOCC2)n1 [SM 352] |
|  | DMSO | OCCNc1nc(NCCCNc2ccnc3cc(Cl)ccc23)nc(N2CCOCC2)n1 [SM 353] |
|  | DMSO | COc1ccc(Nc2nc(NCCCCNc3ccnc4cc(Cl)ccc34)nc(N3CCOCC3)n2)cc1 [SM 356] |
|  | DMSO | Fc1ccc(Nc2nc(NCCCCNc3ccnc4cc(Cl)ccc34)nc(N3CCOCC3)n2)cc1 [SM 357] |
|  | DMSO | CCc1ccc(Nc2nc(NCCCCNc3ccnc4cc(Cl)ccc34)nc(N3CCOCC3)n2)cc1 [SM 358] |
|  | DMSO | Clc1ccc2c(NCCCCNc3nc(Nc4ccccc4)nc(N4CCOCC4)n3)ccnc2c1 [SM 359] |
|  | DMSO | OCCCCNc1nc(NCCNc2ccnc3cc(Cl)ccc23)nc(N2CCOCC2)n1 [SM 360] |
|  | DMSO | OCCCCNc1nc(NCCCNc2ccnc3cc(Cl)ccc23)nc(N2CCOCC2)n1 [SM 361] |
|  | DMSO | OCCCCNc1nc(NCCCCNc2ccnc3cc(Cl)ccc23)nc(N2CCOCC2)n1 [SM 362] |
|  | DMSO | OCCNc1nc(NCCNc2ccnc3cc(Cl)ccc23)nc(N2CCCCC2)n1 [SM 365] |
|  | DMSO | OCCCNc1nc(NCCNc2ccnc3cc(Cl)ccc23)nc(N2CCCCC2)n1 [SM 370] |
|  | DMSO | OCCCNc1nc(NCCCCNc2ccnc3cc(Cl)ccc23)nc(N2CCCCC2)n1 [SM 372] |
|  | DMSO | OCCCCNc1nc(NCCNc2ccnc3cc(Cl)ccc23)nc(N2CCCCC2)n1 [SM 373] |
|  | DMSO | OCCCCNc1nc(NCCCCNc2ccnc3cc(Cl)ccc23)nc(N2CCCCC2)n1 [SM 375] |
|  | DMSO | Cc1cc(NCCCNc2ccnc3cc(Cl)ccc23)nc(Cl)n1 [SM 484A] |
|  | DMSO | Cc1cc(Cl)nc(NCCCNc2ccnc3cc(Cl)ccc23)n1 [SM 484B] |
|  | DMSO | Cc1cc(NCCCNc2ccnc3cc(Cl)ccc23)nc(N2CCCCC2)n1 [SM 485] |
|  | DMSO | Cc1cc(Cl)nc(NCCNc2ccnc3cc(Cl)ccc23)n1 [SM 488B] |

| SOLUBILITY [1] | SOLUBILITY (solvent named, Table 3) | Compound |
| --- | --- | --- |
|  | DMSO | Cc1cc(NCCNc2ccnc3cc(Cl)ccc23)nc(N2CCOCC2)n1 [SM 489] |
|  | DMSO | Cc1cc(NCCNc2ccnc3cc(Cl)ccc23)nc(N2CCCCC2)n1 [SM 490] |
|  | DMSO | Cc1cc(NCCCNc2ccnc3cc(Cl)ccc23)nc(N2CCOCC2)n1 [SM 493] |
|  | DMSO | Cc1cc(NCCCNc2ccnc3cc(Cl)ccc23)nc(N2CCN(C)CC2)n1 [SM 494] |
|  | DMSO | Cc1cc(NCCCCNc2ccnc3cc(Cl)ccc23)nc(Cl)n1 [SM 498A] |
|  | DMSO | Cc1cc(Cl)nc(NCCCCNc2ccnc3cc(Cl)ccc23)n1 [SM 498B] |
|  | DMSO | Cc1cc(NCCCCNc2ccnc3cc(Cl)ccc23)nc(N2CCCCC2)n1 [SM 499] |
|  | DMSO | Cc1cc(NCCCCNc2ccnc3cc(Cl)ccc23)nc(N2CCOCC2)n1 [SM 500] |
|  | DMSO | Cc1cc(NCCCCNc2ccnc3cc(Cl)ccc23)nc(N2CCN(C)CC2)n1 [SM 501] |
|  | DMSO | CCN1CCN(c2nc(C)cc(NCCCCNc3ccnc4cc(Cl)ccc34)n2)CC1 [SM 502] |
|  | DMSO | Cc1cc(NCCCCCCNc2ccnc3cc(Cl)ccc23)nc(Cl)n1 [SM 504A] |
|  | DMSO | Cc1cc(Cl)nc(NCCCCCCNc2ccnc3cc(Cl)ccc23)n1 [SM 504B] |
|  | DMSO | Cc1cc(NCCCCCCNc2ccnc3cc(Cl)ccc23)nc(N2CCCCC2)n1 [SM 505] |
|  | DMSO | Cc1cc(NCCCCCCNc2ccnc3cc(Cl)ccc23)nc(N2CCOCC2)n1 [SM 506] |
|  | DMSO | Cc1cc(NCCCCCCNc2ccnc3cc(Cl)ccc23)nc(N2CCN(C)CC2)n1 [SM 507] |
|  | DMSO | Clc1ccc2c(NCCNc3cc(Cl)nc(Cl)n3)ccnc2c1 [SM 695A] |
|  | DMSO | Clc1ccc2c(NCCNc3nc(Cl)cc(Cl)n3)ccnc2c1 [SM 695B] |
|  | DMSO | Clc1ccc2c(NCCNc3cc(Cl)nc(N4CCOCC4)n3)ccnc2c1 [SM 696] |
|  | DMSO | Clc1ccc2c(NCCNc3cc(Cl)nc(N4CCCCC4)n3)ccnc2c1 [SM 697] |

| Compound | SOLUBILITY [1] | SOLUBILITY (solvent named, Table 3) |
| --- | --- | --- |
| Cc1cc(NCCNc2ccnc3cc(Cl)ccc23)nc(N2CCN(C)CC2)n1 [SM 491] |  | DMSO |
| CCN1CCN(c2nc(C)cc(NCCCNc3ccnc4cc(Cl)ccc34)n2)CC1 [SM 497] |  | DMSO |

Reference: patent US11026943B2, “Aminoquinoline derivatives and uses thereof” (UNIVERSITY OF DELHI, priority 2012, dated 2021)
